Measurements: US11911361B2, “Stable cannabinoid formulations” (priority 2014, dated 2024)

What was measured:
[1] = tested on: maximal electroshock-induced seizures; assay: Maximal electroshock test (MES), mice; settings: for MES N/F (animals protected/tested): mice
[2] = Pharmacokinetic food-effect study, single 20 mg/kg dose, healthy subjects (Example 17); settings: for AUC / AUC(0-t) / AUC(0-inf) / Cmax / Tmax: human, in vivo, po, 20 mg/kg; for AUC: AUC0, cannabidiol; for Tmax: median (min, max)
Description: An open label, randomized, single-dose, two-period, two-way crossover food-effect study was conducted on healthy subjects. […] Twenty-four (24) subjects were enrolled in the study and each were subjected to the fasted and fed treatment arms in separate periods followed by a 7-day wash-out period. For pharmacokinetic analysis, nominal time and default lambda-z selections were used. All below quantifiable limit values were set to zero and all subjects were included in the analysis.
Data from 13 subjects from the fasted treatment and 24 subject from the fed treatment were included in the pharmacokinetic and statistical analyses.

[3] = cannabidiol, single 20 mg/kg oral dose of cannabidiol solution, fasted, mean
[4] = cannabidiol, single 20 mg/kg oral dose of cannabidiol solution, fed, mean

SMILES: C=C(C)[C@@H]1CCC(C)=C[C@H]1c1c(O)cc(CCCCC)cc1O [cannabidiol, (−)-trans-2-p-mentha-1,8-dien-3-yl-5-pentylresorcinol]
- MES N/F (animals protected/tested) ([1]; Anticonvulsant Screening, intraperitoneal, 10 mg/kg, 0.5 h, ethanol:polyethoxylated castor oil:PBS): 0/4
- MES N/F (animals protected/tested) ([1]; Anticonvulsant Screening, intraperitoneal, 10 mg/kg, 0.5 h, methylcellulose): 0/4
- MES N/F (animals protected/tested) ([1]; Anticonvulsant Screening, intraperitoneal, 10 mg/kg, 1.0 h, ethanol:polyethoxylated castor oil:PBS): 0/4
- MES N/F (animals protected/tested) ([1]; Anticonvulsant Screening, intraperitoneal, 10 mg/kg, 1.0 h, methylcellulose): 0/4
- MES N/F (animals protected/tested) ([1]; Anticonvulsant Screening, intraperitoneal, 10 mg/kg, 2.0 h, ethanol:polyethoxylated castor oil:PBS): 0/4
- MES N/F (animals protected/tested) ([1]; Anticonvulsant Screening, intraperitoneal, 10 mg/kg, 2.0 h, methylcellulose): 0/4
- MES N/F (animals protected/tested) ([1]; Anticonvulsant Screening, intraperitoneal, 30 mg/kg, 0.5 h, ethanol:polyethoxylated castor oil:PBS): 0/4
- MES N/F (animals protected/tested) ([1]; Anticonvulsant Screening, intraperitoneal, 30 mg/kg, 0.5 h, methylcellulose): 0/4
- MES N/F (animals protected/tested) ([1]; Anticonvulsant Screening, intraperitoneal, 30 mg/kg, 1.0 h, ethanol:polyethoxylated castor oil:PBS): 1/4
- MES N/F (animals protected/tested) ([1]; Anticonvulsant Screening, intraperitoneal, 30 mg/kg, 1.0 h, methylcellulose): 0/4
- MES N/F (animals protected/tested) ([1]; Anticonvulsant Screening, intraperitoneal, 30 mg/kg, 2.0 h, ethanol:polyethoxylated castor oil:PBS): 0/4
- MES N/F (animals protected/tested) ([1]; Anticonvulsant Screening, intraperitoneal, 30 mg/kg, 2.0 h, methylcellulose): 0/4
- MES N/F (animals protected/tested) ([1]; Anticonvulsant Screening, intraperitoneal, 100 mg/kg, 0.5 h, ethanol:polyethoxylated castor oil:PBS): 0/4
- MES N/F (animals protected/tested) ([1]; Anticonvulsant Screening, intraperitoneal, 100 mg/kg, 0.5 h, methylcellulose): 0/4
- MES N/F (animals protected/tested) ([1]; Anticonvulsant Screening, intraperitoneal, 100 mg/kg, 1.0 h, ethanol:polyethoxylated castor oil:PBS): 2/4
- MES N/F (animals protected/tested) ([1]; Anticonvulsant Screening, intraperitoneal, 100 mg/kg, 1.0 h, methylcellulose): 1/4
- MES N/F (animals protected/tested) ([1]; Anticonvulsant Screening, intraperitoneal, 100 mg/kg, 2.0 h, ethanol:polyethoxylated castor oil:PBS): 1/4
- MES N/F (animals protected/tested) ([1]; Anticonvulsant Screening, intraperitoneal, 100 mg/kg, 2.0 h, methylcellulose): 2/4
- MES N/F (animals protected/tested) ([1]; ED50 Biological Response (Table 57), 200 mg/kg, 2 h, methylcellulose): 5/8
- MES N/F (animals protected/tested) ([1]; ED50 Biological Response (Table 57), 250 mg/kg, 2 h, methylcellulose): 4/8
- MES N/F (animals protected/tested) ([1]; ED50 Biological Response (Table 57), 350 mg/kg, 2 h, methylcellulose): 3/8
- MES N/F (animals protected/tested) ([1]; ED50 Biological Response (Table 57), 400 mg/kg, 2 h, methylcellulose): 3/8
- MES N/F (animals protected/tested) ([1]; ED50 Biological Response (Table 57), 450 mg/kg, 2 h, methylcellulose): 6/8
- MES N/F (animals protected/tested) ([1]; ED50 Biological Response (Table 57), 500 mg/kg, 2 h, methylcellulose): 8/8
- MES N/F (animals protected/tested) ([1]; ED50 Biological Response (Table 59), 75 mg/kg, 2 h, ethanol:polyethoxylated castor oil:PBS): 1/8
- MES N/F (animals protected/tested) ([1]; ED50 Biological Response (Table 59), 95 mg/kg, 2 h, ethanol:polyethoxylated castor oil:PBS): 5/8
- MES N/F (animals protected/tested) ([1]; ED50 Biological Response (Table 59), 120 mg/kg, 2 h, ethanol:polyethoxylated castor oil:PBS): 7/8
- MES N/F (animals protected/tested) ([1]; ED50 Biological Response (Table 59), 150 mg/kg, 2 h, ethanol:polyethoxylated castor oil:PBS): 8/8
- ED50 ([1]; Mus musculus): 92.2 mg/kg
- MES N/F (animals protected/tested) ([1]; Tables 57/58, 300 mg/kg, 2 h, methylcellulose): 4/8
- MES N/F (animals protected/tested) ([1]; Time to Peak Effect (Table 58), 300 mg/kg, 0.25 h, methylcellulose): 0/4
- MES N/F (animals protected/tested) ([1]; Time to Peak Effect (Table 58), 300 mg/kg, 0.5 h, methylcellulose): 1/4
- MES N/F (animals protected/tested) ([1]; Time to Peak Effect (Table 58), 300 mg/kg, 1 h, methylcellulose): 1/4
- MES N/F (animals protected/tested) ([1]; Time to Peak Effect (Table 58), 300 mg/kg, 4 h, methylcellulose): 2/4
- ED50 ([1]; methylcellulose solvent): could not be calculated
- animals protected / tested ([1]; methylcellulose solvent, 0.5 hr): ¼
- animals protected / tested ([1]; methylcellulose solvent, 1 hr): ¼
- animals protected / tested ([1]; methylcellulose solvent, 2 hr): 4/8
- animals protected / tested ([1]; methylcellulose solvent, 4 hr): 2/4
- AUCextrap [2, 3]: 3.57%
- Clast [2, 3]: 0.867 ng/mL
- Tlast [2, 3]: 120.01 h
- λz [2, 3]: 0.0257 h⁻¹
- AUCextrap [2, 4]: 3.84%
- Clast [2, 4]: 6.36 ng/mL
- Tlast [2, 4]: 120.00 h
- λz [2, 4]: 0.0165 h⁻¹
- AUC ([2]; single 20 mg/kg oral, fasted, mean ± SD): 0.325 ± 1.17 ng·h/mL
- AUC ([2]; single 20 mg/kg oral, fed, mean ± SD): 0.229 ± 0.636 ng·h/mL
- AUC(0-t) ([2]; AUC0-0.25, cannabidiol, single 20 mg/kg oral, fasted, mean ± SD): 0.363 ± 1.31 ng·h/mL
- AUC(0-t) ([2]; AUC0-0.25, cannabidiol, single 20 mg/kg oral, fed, mean ± SD): 0.498 ± 0.874 ng·h/mL
- AUC(0-t) ([2]; AUC0-0.5, cannabidiol, single 20 mg/kg oral, fasted, mean ± SD): 0.584 ± 1.33 ng·h/mL
- AUC(0-t) ([2]; AUC0-0.5, cannabidiol, single 20 mg/kg oral, fed, mean ± SD): 2.45 ± 3.38 ng·h/mL
- AUC(0-t) ([2]; AUC0-0.75, cannabidiol, single 20 mg/kg oral, fasted, mean ± SD): 1.25 ± 1.34 ng·h/mL
- AUC(0-t) ([2]; AUC0-0.75, cannabidiol, single 20 mg/kg oral, fed, mean ± SD): 7.48 ± 11.2 ng·h/mL
- AUC(0-t) ([2]; AUC0-1, cannabidiol, single 20 mg/kg oral, fasted, mean ± SD): 1.93 ± 1.62 ng·h/mL
- AUC(0-t) ([2]; AUC0-1, cannabidiol, single 20 mg/kg oral, fed, mean ± SD): 21.8 ± 40 ng·h/mL
- AUC(0-t) ([2]; AUC0-1.5, cannabidiol, single 20 mg/kg oral, fasted, mean ± SD): 2.79 ± 2.14 ng·h/mL
- AUC(0-t) ([2]; AUC0-1.5, cannabidiol, single 20 mg/kg oral, fed, mean ± SD): 128 ± 215 ng·h/mL
- AUC(0-t) ([2]; AUC0-2, cannabidiol, single 20 mg/kg oral, fasted, mean ± SD): 4.14 ± 2.75 ng·h/mL
- AUC(0-t) ([2]; AUC0-2, cannabidiol, single 20 mg/kg oral, fed, mean ± SD): 269 ± 381 ng·h/mL
- AUC(0-t) ([2]; AUC0-2.5, cannabidiol, single 20 mg/kg oral, fasted, mean ± SD): 5.38 ± 4.09 ng·h/mL
- AUC(0-t) ([2]; AUC0-2.5, cannabidiol, single 20 mg/kg oral, fed, mean ± SD): 424 ± 547 ng·h/mL
- AUC(0-t) ([2]; AUC0-3, cannabidiol, single 20 mg/kg oral, fasted, mean ± SD): 5.88 ± 3.99 ng·h/mL
- AUC(0-t) ([2]; AUC0-3, cannabidiol, single 20 mg/kg oral, fed, mean ± SD): 535 ± 675 ng·h/mL
- AUC(0-t) ([2]; AUC0-4, cannabidiol, single 20 mg/kg oral, fasted, mean ± SD): 6.62 ± 3.85 ng·h/mL
- AUC(0-t) ([2]; AUC0-4, cannabidiol, single 20 mg/kg oral, fed, mean ± SD): 812 ± 874 ng·h/mL
- AUC(0-t) ([2]; AUC0-6, cannabidiol, single 20 mg/kg oral, fasted, mean ± SD): 12 ± 9.29 ng·h/mL
- AUC(0-t) ([2]; AUC0-6, cannabidiol, single 20 mg/kg oral, fed, mean ± SD): 1090 ± 886 ng·h/mL
- AUC(0-t) ([2]; AUC0-8, cannabidiol, single 20 mg/kg oral, fasted, mean ± SD): 22.9 ± 39.3 ng·h/mL
- AUC(0-t) ([2]; AUC0-8, cannabidiol, single 20 mg/kg oral, fed, mean ± SD): 819 ± 590 ng·h/mL
- AUC(0-t) ([2]; AUC0-12, cannabidiol, single 20 mg/kg oral, fasted, mean ± SD): 14.7 ± 10.2 ng·h/mL
- AUC(0-t) ([2]; AUC0-12, cannabidiol, single 20 mg/kg oral, fed, mean ± SD): 372 ± 338 ng·h/mL
- AUC(0-t) ([2]; AUC0-16, cannabidiol, single 20 mg/kg oral, fasted, mean ± SD): 9.76 ± 4.79 ng·h/mL
- AUC(0-t) ([2]; AUC0-16, cannabidiol, single 20 mg/kg oral, fed, mean ± SD): 112 ± 133 ng·h/mL
- AUC(0-t) ([2]; AUC0-24, cannabidiol, single 20 mg/kg oral, fasted, mean ± SD): 5.45 ± 2.76 ng·h/mL
- AUC(0-t) ([2]; AUC0-24, cannabidiol, single 20 mg/kg oral, fed, mean ± SD): 34.3 ± 11.7 ng·h/mL
- AUC(0-t) ([2]; AUC0-36, cannabidiol, single 20 mg/kg oral, fasted, mean ± SD): 5 ± 3.78 ng·h/mL
- AUC(0-t) ([2]; AUC0-36, cannabidiol, single 20 mg/kg oral, fed, mean ± SD): 20.7 ± 5.11 ng·h/mL
- AUC(0-t) ([2]; AUC0-48, cannabidiol, single 20 mg/kg oral, fasted, mean ± SD): 2.66 ± 2.4 ng·h/mL
- AUC(0-t) ([2]; AUC0-48, cannabidiol, single 20 mg/kg oral, fed, mean ± SD): 15.5 ± 4.31 ng·h/mL
- AUC(0-t) ([2]; AUC0-72, cannabidiol, single 20 mg/kg oral, fasted, mean ± SD): 1.73 ± 1.89 ng·h/mL
- AUC(0-t) ([2]; AUC0-72, cannabidiol, single 20 mg/kg oral, fed, mean ± SD): 10.1 ± 3.42 ng·h/mL
- AUC(0-t) ([2]; AUC0-96, cannabidiol, single 20 mg/kg oral, fasted, mean ± SD): 1.35 ± 1.73 ng·h/mL
- AUC(0-t) ([2]; AUC0-96, cannabidiol, single 20 mg/kg oral, fed, mean ± SD): 7.86 ± 2.44 ng·h/mL
- AUC(0-t) ([2]; AUC0-120, cannabidiol, single 20 mg/kg oral, fasted, mean ± SD): 0.867 ± 1.34 ng·h/mL
- AUC(0-t) ([2]; AUC0-120, cannabidiol, single 20 mg/kg oral, fed, mean ± SD): 6.36 ± 2.24 ng·h/mL
- AUC(0-inf) ([2]; AUC0-inf, cannabidiol, single 20 mg/kg oral dose of cannabidiol solution, fasted, mean): 360 ng·h/mL
- AUC(0-inf) ([2]; AUC0-inf, cannabidiol, single 20 mg/kg oral dose of cannabidiol solution, fed, mean): 10100 ng·h/mL
- AUC(0-t) ([2]; AUC0-t, cannabidiol, single 20 mg/kg oral dose of cannabidiol solution, fasted, mean): 466 ng·h/mL
- AUC(0-t) ([2]; AUC0-t, cannabidiol, single 20 mg/kg oral dose of cannabidiol solution, fed, mean): 9650 ng·h/mL
- Cmax ([2]; Cmax, cannabidiol, single 20 mg/kg oral dose of cannabidiol solution, fasted, mean): 27.3 ng/mL
- Cmax ([2]; Cmax, cannabidiol, single 20 mg/kg oral dose of cannabidiol solution, fed, mean): 1560 ng/mL
- Tmax ([2]; cannabidiol, single 20 mg/kg oral dose of cannabidiol solution, fasted): 12 h
- Tmax ([2]; cannabidiol, single 20 mg/kg oral dose of cannabidiol solution, fed): 6 h
- AUC(0-inf) ([2]; ln(AUC0-inf) Geometric Mean, cannabidiol, 20 mg/kg oral, Fasted, least squares geometric mean, period removed from model): 326 ng·h/mL
- AUC(0-inf) ([2]; ln(AUC0-inf) Geometric Mean, cannabidiol, 20 mg/kg oral, Fed, least squares geometric mean, period removed from model): 9580 ng·h/mL
- AUC(0-t) ([2]; ln(AUC0-t) Geometric Mean, cannabidiol, 20 mg/kg oral, Fasted, least squares geometric mean): 669 ng·h/mL
- AUC(0-t) ([2]; ln(AUC0-t) Geometric Mean, cannabidiol, 20 mg/kg oral, Fed, least squares geometric mean): 9210 ng·h/mL
- Cmax ([2]; ln(Cmax) Geometric Mean, cannabidiol, 20 mg/kg oral, Fasted, least squares geometric mean): 44.5 ng/mL
- Cmax ([2]; ln(Cmax) Geometric Mean, cannabidiol, 20 mg/kg oral, Fed, least squares geometric mean): 1390 ng/mL
